One experiment deals with NLRP3 inflammasome. As to the kind of experiment: JE on IL-1β production by THP-1 macrophages upon NLRP3 activation. The class given is cell-based, human. Here is the method: FIG. 22. The Effect of JE on IL-1β Production by THP-1 Macrophages. THP-1 macrophages were pretreated with JE overnight at 37° C., 5% CO2. The next day, they were primed with LPS at 500 ng/ml for 4 hours then activated with 6.5 μM of nigericin for 30 minutes at 37 C, 5% CO2. Supernatants were collected and IL-1β production with ELISA. Data are presented as mean±SEM (n=6). *p<0.05. One of two experiments is shown.
FIG. 23. The Effect of JE on IL-1β Production by THP-1 Macrophages: JE was used as a pretreatment when THP-1 macrophages were pretreated with JE overnight at 37° C., 5% CO2. The next day, they were primed with LPS at 500 ng/ml for 4 hours, then activated with 5 mM of ATP for 30 minutes at 37° C., 5% CO2. In the case when JE was used as a treatment, cells were primed with 10 ng/ml of LPS for 4 hours, then JE was added overnight at 37° C., 5% CO2. The following day, macrophages were activated with 5 mM of ATP for an hour. Supernatants were collected and IL-1β production with ELISA. Data are presented as mean±SEM (n=6). **p<0.01. One of two experiments is shown.
We similarly tested THP-1 cells as described above. […] I collected the supernatant and measured IL-1β by ELISA. […]

Experiment [1] has as its system Bone Marrow Derived Macrophage (BMDM). As to the kind of experiment: NC on TNFα production by BMDMs in response to TLR agonists (Example 7). It counts as cell-based, mouse. Here is the method: (§1) FIG. 32. NC Reduces TNFα Response to Toll 3 Agonist. Macrophages were cultured at a uniform density and allowed to adhere (in the case of BMDMs) or differentiate with PMA (in the case of THP-1s). macrophages were then incubated overnight in NC at a concentration of 50 uM at 37° C. The following day, the BMDMs were stimulated with P(I:C) at 50 ug/mL, 100 ug/mL, or 200 ug/mL for four hours and the THP-1s were stimulated at 200 […]. Supernatants were collected and TNFα concentrations were determined via ELISA.
FIG. 33. TNFα production from Bone Marrow Derived Macrophage (BMDM) stimulation. BMDMs were cultured in DMEM supplemented with Macrophage Colony Stimulating Factor (M-CSF) at 10 ng/ml. The macrophages were then incubated overnight in NC at a concentration of 50 uM at 37° C. The following day they were stimulated with LPS at 1 ng/ml, 10 ng/ml for four hours. Supernatants were collected and TNFα concentrations were determined via ELISA.
Bone marrow derived macrophages were collected from adult mice (6-8 weeks old). Femurs were obtained and cut with scissors. The connecting muscles were removed and the bones were flushed with PBS. PBS was collected and cells were counted and adjusted to the desired concentrations. […] After 7 days the cells were ready for use. […]
(§2) Once ready, macrophages were then incubated with NC at a concentration of 50 uM overnight. […] Samples were treated for 4 hours and then Supernatant was then collected and the concentration of TNFα was then determined via the commercially available ELISA MAX Deluxe kit (Biolegend), with measurements reported in pg/mL.
(§3) To investigate the effects NC, macrophages were stimulated in vitro with various TLR agonists, and the production of cytokines was measured via ELISA. […] After 4 hours, supernatant was collected and the concentration of TNFα was determined via ELISA.
(§4) Further investigation of NC's impact on TLR signaling involved treating BMDMs with the TLR 4 agonist LPS. […] After 4 hours supernatant was collected and concentration of TNFα was measured via ELISA. […]

For another experiment, the system named is THP-1 cells. As to the kind of experiment: NC on TNFα production by THP-1s in response to TLR agonists (Example 7). The class given is cell-based, human. Here is the method:
as §1
FIG. 34. TNFα production from THP-1 stimulation. Thp-1s plated at uniform density and incubated in PMA to differentiate and treated with NC overnight. The following day, cells were then treated with FSL at a concentration of 20 ng/ml and 50 ng/ml. After 4 hours, supernatant was collected and the concentration of TNFα was determined via ELISA.
Bone marrow derived macrophages were collected from adult mice (6-8 weeks old). Femurs were obtained and cut with scissors. The connecting muscles were removed and the bones were flushed with PBS. PBS was collected and cells were counted and adjusted to the desired concentrations. Cells were then plated in DMEM supplemented with Macrophage Colony Stimulating Factor (M-CSF) at 10 ng/ml. […] After 7 days the cells were ready for use. […]
as §2, §3, §4

`CC(=O)O[C@@H]1CC[C@H]2[C@H]3CC[C@H]4CC(F)(F)CC[C@]4(C)[C@H]3CC[C@]12C` [JE, 3,3-Difluoro-5-alpha-androstan-17-beta-yl acetate]: the “IL-1β production upon NLRP3 activation” value in the experiment with NLRP3 inflammasome (JE added before priming with LPS (pretreatment overnight)) is “could decrease”; in the experiment on NLRP3 inflammasome (JE after priming with LPS and before adding ATP), “still detected robust production”.
For the compound `CCCCCCCCCCCCCCCC(=O)N[C@@H](C(=O)O)[C@H](C)O` [NC, N-Palmitoyl-D-Threonine], the “production and secretion of TNFα” value is listed as “reduced” in experiment [1] (NC 50 μM overnight, Poly (I:C) 50, 100, 200 μg/ml, 4 hours) and “reduced” with THP-1 cells (NC 50 μM overnight, Poly (I:C) 200 mg/ml or 400 mg/mL, 4 hours). In addition, the “production of TNFα” value in experiment [1] (NC alone, 50 μM overnight) was “not found to increase”; in the experiment on THP-1 cells (NC alone, 50 μM overnight), “not found to increase”. In experiment [1] (NC overnight, LPS 1 ng/ml and 10 ng/ml, 4 hours), the “cytokine (TNFα) production in response to TLR 4 agonist LPS” value was “able to reduce”. In the experiment with THP-1 cells (NC overnight, FSL 20 ng/ml and 50 ng/ml, 4 hours), the “TNFα production in response to TLR 2/6 agonist FSL-1” value is “exhibited inhibitory effects”.

The values are drawn from patent US20250000874A1, “BACTERIAL METABOLITES AND THEIR USE IN REDUCING INFLAMMATION” (LOYOLA UNIVERSITY OF CHICAGO, priority 2023, published 2025).
